Measurements reported in ChEMBL document CHEMBL1201862, “PubChem BioAssay data set” (2004).
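Grown in 96-well plates, cells were treated for 48 hours with each compound at five concentrations. Insufficient inhibition: endpoint recorded as highest concentration tested. The concentration for 50% growth inhibition is given as GI50.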 Calls of active or inactive are those of the source. Rule as the data show it: active = GI50 up to about 1.1 µM and inactive = higher.

What was measured:
Experiment in all cases: inhibition of tumour cell growth, NCI panel, 48 h
T47D = system: T47D
CCRF-CEM = system: CCRF-CEM
EKVX = system: EKVX
IGROV-1 = system: IGROV-1
HOP-92 = system: HOP-92
CAKI-1 = system: CAKI-1
KM12 = system: KM12
MDA-N = system: MDA-N
A498 = system: A498
MDA-MB-231 = system: MDA-MB-231
SF-268 = system: SF-268
SF-295 = system: SF-295
SR = system: SR
NCI-H23 = system: NCI-H23
MDA-MB-435 = system: MDA-MB-435
OVCAR-5 = system: OVCAR-5
RXF 393 = system: RXF 393
A549 = system: A549
NCI-H226 = system: NCI-H226
MCF7 = system: MCF7
NCI-H522 = system: NCI-H522
NCI/ADR-RES = system: NCI/ADR-RES
TK-10 = system: TK-10
HOP-62 = system: HOP-62
Malme-3M = system: Malme-3M
ACHN = system: ACHN
786-0 = system: 786-0
M14 = system: M14
HCT-116 = system: HCT-116
OVCAR-3 = system: OVCAR-3
HCC 2998 = system: HCC 2998
SK-MEL-28 = system: SK-MEL-28
UO-31 = system: UO-31
LOX IMVI = system: LOX IMVI
BT-549 = system: BT-549
UACC-62 = system: UACC-62
UACC-257 = system: UACC-257
PC-3 = system: PC-3
DU-145 = system: DU-145
COLO 205 = system: COLO 205
OVCAR-4 = system: OVCAR-4
SN12C = system: SN12C
Hs-578T = system: Hs-578T
SW-620 = system: SW-620
HCT-15 = system: HCT-15
RPMI-8226 = system: RPMI-8226
NCI-H460 = system: NCI-H460
HT-29 = system: HT-29
K562 = system: K562
OVCAR-8 = system: OVCAR-8
HL-60 = system: HL-60
SNB-75 = system: SNB-75
U-251 = system: U-251
SK-MEL-2 = system: SK-MEL-2
SNB-19 = system: SNB-19
SK-MEL-5 = system: SK-MEL-5
SF-539 = system: SF-539
SK-OV-3 = system: SK-OV-3
MOLT-4 = system: MOLT-4

## O=c1[nH]nc(Nc2ccc(Cl)cc2)c2nnn(C3CCCCC3)c12
T47D
  GI50: > 100 µM (inactive)
CCRF-CEM
  GI50: 26.7 µM (inactive)
EKVX
  GI50: 84.1 µM (inactive)
IGROV-1
  GI50: > 100 µM (inactive)
HOP-92
  GI50: 22.4 µM (inactive)
CAKI-1
  GI50: 16.2 µM (inactive)
KM12
  GI50: 65.5 µM (inactive)
MDA-N
  GI50: > 100 µM (inactive)
A498
  GI50: 37.4 µM (inactive)
MDA-MB-231
  GI50: 13.9 µM (inactive)
SF-268
  GI50: 36.6 µM (inactive)
SF-295
  GI50: > 100 µM (inactive)
SR
  GI50: 7.19 µM (inactive)
NCI-H23
  GI50: 45.3 µM (inactive)
MDA-MB-435
  GI50: 46.3 µM (inactive)
OVCAR-5
  GI50: > 100 µM (inactive)
RXF 393
  GI50: 30.4 µM (inactive)
A549
  GI50: > 100 µM (inactive)
NCI-H226
  GI50: 86.7 µM (inactive)
MCF7
  GI50: 58.5 µM (inactive)
NCI-H522
  GI50: 23.9 µM (inactive)
NCI/ADR-RES
  GI50: 32.1 µM (inactive)
TK-10
  GI50: 53 µM (inactive)
HOP-62
  GI50: 30.8 µM (inactive)
Malme-3M
  GI50: 50.8 µM (inactive)
ACHN
  GI50: > 100 µM (inactive)
786-0
  GI50: 15.1 µM (inactive)
M14
  GI50: 55.1 µM (inactive)
HCT-116
  GI50: 42.1 µM (inactive)
OVCAR-3
  GI50: 37.2 µM (inactive)
HCC 2998
  GI50: > 100 µM (inactive)
SK-MEL-28
  GI50: > 100 µM (inactive)
UO-31
  GI50: > 100 µM (inactive)
LOX IMVI
  GI50: 16.4 µM (inactive)
BT-549
  GI50: > 100 µM (inactive)
UACC-62
  GI50: > 100 µM (inactive)
UACC-257
  GI50: > 100 µM (inactive)
PC-3
  GI50: > 100 µM (inactive)
DU-145
  GI50: > 100 µM (inactive)
COLO 205
  GI50: 59.2 µM (inactive)
OVCAR-4
  GI50: 17 µM (inactive)
SN12C
  GI50: > 100 µM (inactive)
Hs-578T
  GI50: 34.5 µM (inactive)
SW-620
  GI50: 62.4 µM (inactive)
HCT-15
  GI50: 72.8 µM
RPMI-8226
  GI50: 50.7 µM (inactive)
NCI-H460
  GI50: 41.4 µM (inactive)
HT-29
  GI50: 26.1 µM (inactive)
K562
  GI50: 26.5 µM (inactive)
OVCAR-8
  GI50: 14.1 µM (inactive)
HL-60
  GI50: 86.3 µM (inactive)
SNB-75
  GI50: 26.3 µM (inactive)
U-251
  GI50: 25.2 µM (inactive)
SK-MEL-2
  GI50: > 100 µM (inactive)
SNB-19
  GI50: > 100 µM (inactive)
SK-MEL-5
  GI50: > 100 µM (inactive)
SF-539
  GI50: > 100 µM (inactive)

## Cc1ccc(Nc2nc3[nH]ccc3c(=O)[nH]2)cc1
T47D
  GI50: 56.1 µM (inactive)
CCRF-CEM
  GI50: > 100 µM (inactive)
EKVX
  GI50: 76.2 µM (inactive)
IGROV-1
  GI50: > 100 µM (inactive)
HOP-92
  GI50: > 100 µM (inactive)
CAKI-1
  GI50: 85.5 µM (inactive)
KM12
  GI50: > 100 µM (inactive)
MDA-N
  GI50: > 100 µM (inactive)
SK-OV-3
  GI50: > 100 µM (inactive)
A498
  GI50: 18.1 µM (inactive)
MDA-MB-231
  GI50: 52.7 µM (inactive)
SF-268
  GI50: 65.3 µM (inactive)
SF-295
  GI50: 72.9 µM (inactive)
SR
  GI50: > 100 µM (inactive)
NCI-H23
  GI50: > 100 µM (inactive)
MDA-MB-435
  GI50: > 100 µM (inactive)
OVCAR-5
  GI50: > 100 µM (inactive)
RXF 393
  GI50: 14.5 µM (inactive)
A549
  GI50: 66.1 µM (inactive)
NCI-H226
  GI50: > 100 µM (inactive)
MCF7
  GI50: > 100 µM (inactive)
NCI-H522
  GI50: > 100 µM (inactive)
NCI/ADR-RES
  GI50: > 100 µM (inactive)
TK-10
  GI50: 95.7 µM (inactive)
HOP-62
  GI50: > 100 µM (inactive)
Malme-3M
  GI50: > 100 µM (inactive)
ACHN
  GI50: > 100 µM (inactive)
786-0
  GI50: > 100 µM (inactive)
M14
  GI50: > 100 µM (inactive)
HCT-116
  GI50: > 100 µM (inactive)
OVCAR-3
  GI50: 33 µM (inactive)
HCC 2998
  GI50: 71.6 µM (inactive)
UO-31
  GI50: 57.3 µM (inactive)
LOX IMVI
  GI50: > 100 µM (inactive)
BT-549
  GI50: 70.3 µM (inactive)
UACC-62
  GI50: 93.8 µM (inactive)
UACC-257
  GI50: > 100 µM (inactive)
PC-3
  GI50: 37.8 µM (inactive)
DU-145
  GI50: 53.6 µM (inactive)
COLO 205
  GI50: > 100 µM (inactive)
OVCAR-4
  GI50: > 100 µM (inactive)
SN12C
  GI50: > 100 µM (inactive)
Hs-578T
  GI50: 35.8 µM (inactive)
SW-620
  GI50: > 100 µM (inactive)
HCT-15
  GI50: 87.5 µM
RPMI-8226
  GI50: > 100 µM (inactive)
NCI-H460
  GI50: > 100 µM (inactive)
HT-29
  GI50: 61.9 µM (inactive)
K562
  GI50: > 100 µM (inactive)
OVCAR-8
  GI50: > 100 µM (inactive)
HL-60
  GI50: 75.5 µM (inactive)
SNB-75
  GI50: 2.24 µM (inactive)
U-251
  GI50: > 100 µM (inactive)
SK-MEL-2
  GI50: > 100 µM (inactive)
SNB-19
  GI50: 96.2 µM (inactive)
SK-MEL-5
  GI50: > 100 µM (inactive)
SF-539
  GI50: > 100 µM (inactive)
MOLT-4
  GI50: 39.7 µM (inactive)
